Experimental data from patent US11083677B2, “Cosmetic base including amide alcohol, and cosmetic” (Kokyu Alcohol Kogyo Co., Ltd., priority 2016, dated 2021).
Entries after “also recorded” stand apart in the source; their conditions may differ.

Experiments:
[1] = Evaluation of solubility and gelling ability (critical gelation concentration, sample tube inversion method); assay type: physicochemical
Experimental: The amide alcohol and each liquid were heated and mixed, and the critical gelation concentration was measured by sample tube inversion method.
Sample tube used: used tube: Maruemu screw tube No. 7 (trunk diameter 35 mm, total length 78 mm)

[2] = Solubility of glycerin with various alcohols

| Structure (SMILES) | solubility and gelling ability ([1]; Ethanol) | behaviour with glycerin (in words) ([1]; Glycerin) | concentration for thickening ([1]; Glycerin) | behaviour with glycerin (in words) ([1]; Glycerin, listed as 4HN CHBA) | concentration for thickening ([1]; Octyldodecanol) | solubility and gelling ability ([1]; Octyldodecyl myristate) | solubility and gelling ability ([1]; Squalane) | solubility and gelling ability ([1]; Triethylhexanoin) | behaviour with water (in words) ([1]; Water) | solubility and gelling ability ([1]; Water) | solubility and gelling ability ([1]; Glycerin) | solubility and gelling ability ([1]; Octyldodecanol) | solubility with glycerin (in words) [2] | behaviour with ester oil (in words) [1] |
| --- | --- | --- | --- | --- | --- | --- | --- | --- | --- | --- | --- | --- | --- | --- |
| O=C(CCCO)NC1CCCCC1 [4HN-CHBA, 4-hydroxy-N-cyclohexyl, butyramide] | S | thickened | (≥12 wt %) | thickening/gelation | (≥18 wt %) | I | I | I | solubility in water | S |  |  |  |  |
| CCCCC(CC)CNC(=O)CCCO (centres unmarked) [4HN-EHBA, 4-hydroxy-N-2-ethylhexyl, butyramide] | S |  |  |  |  | S | I | I |  | I | S | S | can be dissolved |  |
| CCCCCCCCCCCCNC(=O)CCCO [4HN-LBA, 4-hydroxy-N-lauryl, butyramide] | S | gelled |  |  |  |  |  |  | emulsification-gelled |  |  |  |  | gelled |
| CCCCCCCCCCCCCCNC(=O)CCCO [4HN-MBA, 4-hydroxy-N-myristyl, butyramide] | S |  |  |  |  |  |  |  |  |  | I |  |  |  |
| CCCCCCCCNC(=O)CCCO [4HN-OBA, 4-hydroxy-N-octyl, butyramide] | S | gelled; also recorded: thickening/gelation |  |  |  |  | I |  | solubility in water | S |  | S |  | gelled |

Continued, values first:

| solubility and gelling ability ([1]; Ethanol) | behaviour with glycerin (in words) ([1]; Glycerin) | concentration for thickening ([1]; Glycerin) | behaviour with glycerin (in words) ([1]; Glycerin, listed as 4HN CHBA) | concentration for thickening ([1]; Octyldodecanol) | solubility and gelling ability ([1]; Octyldodecyl myristate) | solubility and gelling ability ([1]; Squalane) | solubility and gelling ability ([1]; Triethylhexanoin) | behaviour with water (in words) ([1]; Water) | solubility and gelling ability ([1]; Water) | solubility and gelling ability ([1]; Glycerin) | solubility and gelling ability ([1]; Octyldodecanol) | solubility with glycerin (in words) [2] | behaviour with ester oil (in words) [1] | Structure (SMILES) |
| --- | --- | --- | --- | --- | --- | --- | --- | --- | --- | --- | --- | --- | --- | --- |
| S |  |  |  |  |  |  |  |  | I | I | S |  |  | CCCCCCCC/C=C\CCCCCCCCNC(=O)CCCO [4HN-OLBA, 4-hydroxy-N-oleyl, butyramide] |
| I |  |  |  |  |  |  |  |  | I | I |  |  |  | CCCCCCCCCCCCCCCCCCNC(=O)CCCO [4HN-STBA, 4-hydroxy-N-stearyl, butyramide] |
| S |  |  |  |  |  |  |  |  | I | I |  |  |  | CCCCCCCCCCCCNC(=O)CCCCCO [6HN-LHA, 6-hydroxy-N-lauryl, hexylamide] |
